Like-named read-outs stand apart in the source and are kept apart here.
Key:
[1] = target: T1, dopamine D2 receptors (Homo sapiens (Human), UniProt P14416); assay: Dopamine D2 receptor Gαi1 BRET (G protein trimer dissociation); type: cell-based; conditions: for Emax: relative to endogenous ligand dopamine, read-out: Gαi1 BRET Emax % ± SEM
Procedure, shortened: (§1)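 G-protein assay: cells co-transfected with D2 receptor, Gαi1-Rluc, Gβ3 and Gγ9-GFP (1 μg each); β-arrestin2 assay: D2-Rluc, GRK2 and GFP2-β-arrestin2 co-transfected. Cells were reseeded after one day and tested on day three. Drug dilution series were added in duplicate with coelenterazine 400a (5 μM final), and the BRET signal was read.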

[2] = target: T1, dopamine D2 receptors; assay: Dopamine D2 receptor β-arrestin2 BRET (recruitment); type: cell-based; conditions: for Emax: relative to endogenous ligand dopamine, read-out: β-arrestin2 BRET Emax % ± SEM
Procedure, shortened: as §1

[3] = Brain permeability test, single intraperitoneal dose in C57 male mice; type: in vivo; conditions: intraperitoneal 5 mg/kg; for Kp at 0.5 h / Kp at 2 h / concentration at 0.5 h / concentration at 2 h / Kp at 4 h / Kp / concentration at 4 h / AUC: male, C57, mouse; for Kp at 0.5 h / Kp at 2 h / Kp at 4 h / Kp: brain/plasma; for Kp at 0.5 h / Kp at 2 h / Kp at 4 h / Kp / AUC: ip; for Kp at 0.5 h: read-out: 0.5 h ratio (brain/plasma); for Kp at 2 h: read-out: 2.0 h ratio (brain/plasma); for Kp at 4 h: read-out: 4.0 h ratio (brain/plasma); for Kp: read-out: AUC ratio (brain/plasma)
Procedure: Using the same method as that in the pharmacokinetic experiment, 0.030 mL of blood was collected from the orbit of each animal at 0.5 hours, 2.0 hours, and 4.0 hours, and anticoagulated with EDTA-K2. Blood samples were placed on ice after collection, and plasma was separated by centrifugation within 30 minutes (centrifugation conditions: 5000 rpm, 10 minutes, 4° C.). The collected plasma was stored at −80° C. before analysis. […] The homogenate was stored at −80° C. before analysis. Drug concentrations in plasma and brain tissues were analyzed by LC/MS/MS for comparison.

[4] = target: 5-HT2A receptors (Homo sapiens (Human), UniProt P28223); assay: 5-HT2A receptor radioligand competition binding assay ([3H]-ketanserin); conditions: for Ki: read-out: Ki
Sequence of 5-HT2A receptors (P28223 whole entry): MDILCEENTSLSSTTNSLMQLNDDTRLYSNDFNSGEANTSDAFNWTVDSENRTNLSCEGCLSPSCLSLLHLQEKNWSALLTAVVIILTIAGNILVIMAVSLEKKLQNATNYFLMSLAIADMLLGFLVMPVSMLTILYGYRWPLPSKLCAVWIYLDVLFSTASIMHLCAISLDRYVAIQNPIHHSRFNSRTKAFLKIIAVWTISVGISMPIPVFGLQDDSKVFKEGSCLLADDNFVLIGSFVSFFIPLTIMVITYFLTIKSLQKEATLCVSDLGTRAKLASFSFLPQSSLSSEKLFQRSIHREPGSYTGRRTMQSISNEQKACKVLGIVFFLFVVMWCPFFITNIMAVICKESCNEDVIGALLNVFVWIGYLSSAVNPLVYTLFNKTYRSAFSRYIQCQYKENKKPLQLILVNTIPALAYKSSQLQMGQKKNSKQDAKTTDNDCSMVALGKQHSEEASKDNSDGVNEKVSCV
Procedure: The affinity of the compounds of the present disclosure for 5-HT2A receptors was determined by a radioligand competition binding assay. In the first step, a cell membrane component containing specific 5-HT2A receptor was prepared. A 10 cm dish was used for transfection with […] of 5-HT2A receptors and 40 μL of PEI. After 48 hours, the 10 cm dish was taken out from the cell incubator and the cultured cells had expressed the 5-HT2A receptors. A vacuum pump was used to suck off the culture medium, 3 mL of lysis buffer was added to each culture dish, and the cells were placed in a 4° C. cold room for 10 minutes. After the cells were detached, the cells were transferred to a 15 mL centrifuge tube and centrifuged at 1500 rpm for 5 minutes at 4° C., and the supernatant was discarded. The cell pellet was transferred to a tissue homogenizer, and 3 mL of lysis buffer was added and fully ground until the cells were broken. Then, cell suspension was equally aliquoted into several EP tubes, centrifuged at 12000 rpm for 5 minutes at 4° C., and the supernatant was discarded. The precipitate was the cell membrane component containing the 5-HT2A receptors. […] First, a standard binding buffer was added to the cell membrane component containing the 5-HT2A receptors, and the cell membrane was disrupted and resuspended with an electric tissue homogenizer. 30 μL of membrane protein suspension was added to each well of a 96-well plate. Then, 30 μL of different drugs were added to the 96-well plate sequentially from bottom to top to ensure that the final drug concentrations were 10^−5 M, 10^−6 M, 10^−7 M, 10^−8 M, 10^−9 M, and 0 M, with two replicates per treatment. Next, 30 μL of [^3H]-ketanserin was added to each well of the 96-well plate. The plate was incubated at room temperature in the dark for 2 hours. Detection was conducted. The machine readout value reflected the amount of [^3H]-ketanserin bound on the membrane, and after further data processing, the affinity Ki values of different compounds for the 5-HT2A receptors were obtained.

[5] = unit printed only in Cariprazine cell, read-out: Gαi1 BRET EC50
[6] = read-out: β-arrestin2 BRET pEC50 ± SEM (converted)
[7] = unit printed only in Cariprazine cell, read-out: β-arrestin2 BRET EC50
[8] = brain, read-out: 0.5 h brain concentration
[9] = plasma, read-out: 0.5 h plasma concentration
[10] = brain, read-out: 2.0 h brain concentration
[11] = plasma, read-out: 2.0 h plasma concentration
[12] = read-out: Gαi1 BRET pEC50 ± SEM (converted)
[13] = [3H]-ketanserin, 293T membranes
[14] = brain, read-out: 4.0 h brain concentration
[15] = plasma, read-out: 4.0 h plasma concentration

T1 sequence (P14416 whole entry): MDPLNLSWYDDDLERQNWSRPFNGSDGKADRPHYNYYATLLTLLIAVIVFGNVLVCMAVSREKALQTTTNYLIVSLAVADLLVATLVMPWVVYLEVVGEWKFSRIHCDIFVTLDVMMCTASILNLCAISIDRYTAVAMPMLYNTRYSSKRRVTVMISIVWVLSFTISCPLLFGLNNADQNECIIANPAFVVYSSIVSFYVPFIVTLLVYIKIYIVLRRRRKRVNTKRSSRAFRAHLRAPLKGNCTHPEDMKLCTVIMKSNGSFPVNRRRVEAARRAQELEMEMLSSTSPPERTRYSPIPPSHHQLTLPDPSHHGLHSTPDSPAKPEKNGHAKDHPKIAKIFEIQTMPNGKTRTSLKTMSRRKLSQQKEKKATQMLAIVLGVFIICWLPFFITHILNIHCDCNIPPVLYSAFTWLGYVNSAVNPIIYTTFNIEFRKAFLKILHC

| Compound | Emax [1] [%] | EC50 [1, 5] [nM] | EC50 [2, 6] [nM] | Emax [2] [%] | EC50 [2, 7] [nM] | Kp at 0.5 h [3] | Kp at 2 h [3] | concentration at 0.5 h [3, 8] [ng/mL] | concentration at 0.5 h [3, 9] [ng/mL] | concentration at 2 h [3, 10] [ng/mL] | concentration at 2 h [3, 11] [ng/mL] | EC50 [1, 12] [nM] | affinity for 5-HT2A receptors (in words) [4] | Ki [4, 13] [nM] | AUC brain ([3]; brain) [ng·h/mL] | Kp at 4 h [3] | Kp [3] | concentration at 4 h [3, 14] [ng/mL] | concentration at 4 h [3, 15] [ng/mL] | AUC ([3]; plasma) [ng·h/mL] | other results |
| --- | --- | --- | --- | --- | --- | --- | --- | --- | --- | --- | --- | --- | --- | --- | --- | --- | --- | --- | --- | --- | --- |
| COc1cccc2c3c(oc12)CN(CC[C@H]1CC[C@H](NC(=O)N(C)C)CC1)CC3 [I-A12, 3-(trans-4-(2-(8-methoxy-3,4-dihydrobenzofuro[2,3-c]pyridin-2(1H)-yl)ethyl)cyclohexyl)-1,1-dimethylurea] | 70 | 1.38 | 8.13 | 108 | 10.7 | 1.69 | 2.26 | 1400 ± 220 | 830 ± 119 | 455 ± 61 | 202 ± 56.2 |  |  |  |  |  |  |  |  |  |  |
| COc1cccc2c3c([nH]c12)CN(CC[C@H]1CC[C@H](NC(=O)N(C)C)CC1)CC3 [I-B7, 3-(trans-4-(2-(8-methoxy-1,3,4,9-tetrahydro-2H-pyrido[3,4-b]indol-2-yl)ethyl)cyclohexyl)-1,1-dimethylurea] | 21 | 17 | 0.107 | 44 | 0.24 | 0.656 | 0.643 | 392 ± 15 | 598 ± 19 | 73 ± 129 | 114 ± 67.9 | 11.2 | very weak affinity | 3510 |  |  |  |  |  |  |  |
| COc1cccc2c1cc1n2CCN(CCCCOc2ccc3ccc(=O)[nH]c3c2)C1 [I-C1, 7-(4-(9-methoxy-3,4-dihydropyrazino[1,2-a]indol-2(1H)-yl)butoxy)quinolin-2(1H)-one] | 72 | 7.94 |  | 117 | 220 | 0.478 | 0.663 | 1940 ± 63 | 4060 ± 367 | 732 ± 56 | 1100 ± 89 | 6.31 |  |  | 3385 | 0.541 | 0.538 | 161 ± 55 | 297 ± 106 | 6290 |  |
| COc1cccc2c1cc1n2CCN(CCCCOc2ccc3c(c2)NC(=O)CC3)C1 [I-C2, 7-(4-(9-methoxy-3,4-dihydropyrazino[1,2-a]indol-2(1H)-yl)butoxy)-3,4-dihydroquinolin-2(1H)-one] | 81 | 46.3 | 66.1 | 115 | 122 | 0.855 | 0.834 | 2800 ± 208 | 3280 ± 456 | 1260 ± 279 | 1510 ± 545 | 44.7 |  |  | 5561 | 0.931 | 0.853 | 599 ± 54 | 558 ± 100 | 6520 |  |
| COc1cccc2c3c(oc12)CN(CCCCOc1ccc2ccc(=O)[nH]c2c1)CC3 [I-A1, 7-(4-(8-methoxy-3,4-dihydrobenzofuro[2,3-c]pyridin-2(1H)-yl)butoxy)quinolin-2(1H)-one] | 55 | 48.8 |  |  | 27.7 |  |  | 1110 ± 43 | 2220 ± 447 | 236 ± 25 | 397 ± 26.3 | 23.4 | very weak affinity | 1790 |  |  |  |  |  |  | β-arrestin2 BRET pEC50 ± SEM [2]: (7.62 ± 0.17); pKi ± SEM [4, 13]: (5.74 ± 0.03) |

— patent US20250109139A1, “TRICYCLIC COMPOUND, AND PREPARATION METHOD THEREFOR AND USE THEREOF” (SHANGHAITECH UNIVERSITY, priority 2022, published 2025)
